Data published in patent US20050142531A1, “Peptidically buffered formulations for electrotransport applications and methods of making” (priority 2003, published 2005).
Values after ≈ are worked out from the molar mass of the structure shown. Counter-ions that a name gives are not always drawn. Peptide text beside a SMILES is read from it.

Key:
[1] = cited from earlier work
[2] = pKa, pI and % salt of peptidic buffers; format: physicochemical
[3] = Conductivities and solubilities of selected multipeptides at their pI; format: physicochemical; settings: for pI: Table 1; for Solubility: at pI
Text: Table 1 lists conductivities and solubilities of selected multipeptides useful in the present invention, at their pI. The pH buffering capacity of the peptidic buffers of the present invention can be explained by using Gly-His at pH 7.5 as an example (the pI of Gly-His is 7.55). At this pH, the net charge of the molecule is essentially zero. At the pI, three species coexist. The bulk of the molecule (70%) consists of the neutral species that bears two internal charges, one positive and one negative resulting in a net charge of zero. […] Although there are small percentages of species presenting a net positive or negative charge in solution, there is minimal ionic transport of these charged species due to charge equilibrium between the three species (i.e., a positive charge migrating in the electric field will revert almost instantly to its neutral form and lose momentum or to its negative form and migrate backward). Thus, there is little if any ionic transport of the charged peptides into the systemic circulation of the patient. Due to the same principle of charge equilibrium, any depletion of the charged molecules will be compensated immediately by dissociation of the neutral form to its charged species thereby providing a reservoir insuring long term pH stability. In addition, if loss of the molecule occurs by electroosmosis of the neutral species, this will not result in any pH changes.

Row | pka A (acidic pKa) ([2]; Table 2, first acidic pKa) | pka B (basic pKa) ([2]; Table 2, first basic pKa) | pka A (acidic pKa) ([2]; Table 2, second acidic pKa) | pka B (basic pKa) ([2]; Table 2, second basic pKa) | pI [3] | Solubility [3] [mM] | Structure (SMILES) | pKa (first value) ([1]; first listed) | pKa (second value) ([1]; second listed) | pKa (third value) ([1]; third listed) | pKa (amine) ([1]; amine) | pKa (carboxylic) ([1]; carboxylic) | pKa (enolic OH) ([1]; enolic OH)
1 |  |  |  |  |  |  | CO/N=C(\C(=O)N[C@@H]1C(=O)N2C(C(=O)O)=C(CSc3nc(C)c(CC(=O)O)s3)CS[C@H]12)c1csc(N)n1 [Cefodizime disodium salt] | 2.85 | 3.37 | 4.18 |  |  | 
2 | 2.42 | 6.71 |  | 8.39 | 7.55 | 1000 (≈ 212 mg/mL) | NCC(=O)N[C@@H](Cc1c[nH]cn1)C(=O)O [Gly-His] (H-Gly-His-OH; N-terminus and C-terminus assumed) |  |  |  |  |  | 
3 | 2.28 | 6.45 | 3.99 | 8.19 | 5.22 | 50 (≈ 13.5 mg/mL) | N[C@@H](Cc1c[nH]cn1)C(=O)N[C@@H](CC(=O)O)C(=O)O [His-Asp] (H-His-Asp-OH; N-terminus and C-terminus assumed) |  |  |  |  |  | 
4 | 2.30 | 6.32 | 4.19 | 8.07 | 5.20 | 400 (≈ 114 mg/mL) | N[C@@H](Cc1c[nH]cn1)C(=O)N[C@@H](CCC(=O)O)C(=O)O [His-Glu] (H-His-Glu-OH; N-terminus and C-terminus assumed) |  |  |  |  |  | 
5 | 2.41 | 5.90 |  | 7.91 | 6.90 | 1000 (≈ 212 mg/mL) | N[C@@H](Cc1c[nH]cn1)C(=O)NCC(=O)O [His-Gly] (H-His-Gly-OH; N-terminus and C-terminus assumed) |  |  |  |  |  | 
6 | 2.42 | 6.71 |  | 9.10 |  |  | O=C(O)[C@H](Cc1c[nH]cn1)NC(=O)[C@@H]1CCCN1 [Pro-His] |  |  |  |  |  | 
7 | 2.42 | 6.71 |  | 7.70 |  |  | N[C@@H](CO)C(=O)N[C@@H](Cc1c[nH]cn1)C(=O)O [Ser-His] (H-Ser-His-OH; N-terminus and C-terminus assumed) |  |  |  |  |  | 
8 | 2.42 | 6.71 |  | 7.60 |  |  | C[C@@H](O)[C@H](N)C(=O)N[C@@H](Cc1c[nH]cn1)C(=O)O [Thr-His] (H-Thr-His-OH; N-terminus and C-terminus assumed) |  |  |  |  |  | 
9 | 2.42 | 6.71 |  | 7.90 |  |  | N[C@@H](Cc1c[nH]c2ccccc12)C(=O)N[C@@H](Cc1c[nH]cn1)C(=O)O [Trp-His] (H-Trp-His-OH; N-terminus and C-terminus assumed) |  |  |  |  |  | 
10 | 2.64 | 7.39 | 9.36 | 11.62 |  |  | N=C(N)NCCC[C@H](NC(=O)[C@@H](N)Cc1ccc(O)cc1)C(=O)O [Tyr-Arg] |  |  |  |  |  | 
11 | 2.42 | 6.71 | 9.90 | 7.60 |  |  | N[C@@H](Cc1ccc(O)cc1)C(=O)N[C@@H](Cc1c[nH]cn1)C(=O)O [Tyr-His] (H-Tyr-His-OH; N-terminus and C-terminus assumed) |  |  |  |  |  | 
12 | 3.09 | 6.83 |  | 7.94 | 7.38 | 200 (≈ 50.9 mg/mL) | CC(C)[C@H](N)C(=O)N[C@@H](Cc1c[nH]cn1)C(=O)O [Val-His] (H-Val-His-OH; N-terminus and C-terminus assumed) |  |  |  |  |  | 
13 |  |  |  |  |  |  | CO/N=C(\C(=O)N[C@@H]1C(=O)N2C(C(=O)O)=C(CSc3nc(=O)c(=O)[nH]n3C)CS[C@H]12)c1csc(N)n1 [ceftriaxone] |  |  |  | 3.2 | 3 | 4.1

Row | Structure (SMILES) | pka A (acidic pKa) ([2]; Table 2, first acidic pKa) | pka B (basic pKa) ([2]; Table 2, first basic pKa) | pka A (acidic pKa) ([2]; Table 2, second acidic pKa) | pka B (basic pKa) ([2]; Table 2, second basic pKa) | pI [3] | Solubility [3] [mM] | pKa (first value) ([1]; first listed) | pKa (second value) ([1]; second listed) | pKa (third value) ([1]; third listed) | pKa (amine) ([1]; amine) | pKa (carboxylic) ([1]; carboxylic) | pKa (enolic OH) ([1]; enolic OH)
14 | NCCCC[C@H](NC(=O)[C@@H](N)CCC(=O)O)C(=O)O [Glu-Lys] (H-Glu-Lys-OH; N-terminus and C-terminus assumed) | 2.85 | 7.94 | 4.01 | 11.07 | 6.00 | 1000 (≈ 275 mg/mL) |  |  |  |  |  | 
15 | C[C@H](NC(=O)[C@@H](N)Cc1c[nH]cn1)C(=O)O [His-Ala] (H-His-Ala-OH; N-terminus and C-terminus assumed) | 2.48 | 6.10 |  | 7.80 | 6.95 | 500 (≈ 113 mg/mL) |  |  |  |  |  | 
16 | NCCCC[C@H](N)C(=O)N[C@@H](CC(=O)O)C(=O)O [Lys-Asp] (H-Lys-Asp-OH; N-terminus and C-terminus assumed) | 2.64 | 8.05 | 4.10 | 11.20 | 6.08 | 1000 (≈ 261 mg/mL) |  |  |  |  |  | 
17 | NCCCC[C@H](N)C(=O)N[C@@H](CCC(=O)O)C(=O)O [Lys-Glu] (H-Lys-Glu-OH; N-terminus and C-terminus assumed) | 2.74 | 7.92 | 4.18 | 11.12 | 6.06 | 500 (≈ 138 mg/mL) |  |  |  |  |  | 
